Measurements from ChEMBL document CHEMBL1212868, “Synergistic experimental/computational studies on arylazoenamine derivatives that target the bovine viral diarrhea virus RNA-dependent RNA polymerase” (Bioorg Med Chem, 2010).
pEC50, pIC50: −log10 of the molar value.

What was measured:
[1] = system: Bovine viral diarrhea virus 1; experiment: Antiviral activity against BVDV infected in […] cells assessed as inhibition of virus-induced cytopathogenicity by MTT assay; format: functional, organism-based; conditions: Bovine viral diarrhea virus isolates and strains
[2] = Inhibition of hepatitis C virus RNA dependent NS5B polymerase; design: species or system Hepacivirus hominis
[3] = Selectivity index, ratio of CC50 for […] cells to EC50 for BVDV
[4] = Cytotoxicity against […] cells by MTT assay; format: cell-based
[5] = Inhibition of BVDV RNA dependent NS5B polymerase; design: species or system Bovine viral diarrhea virus 1
[6] = system: Bovine viral diarrhea virus 1; experiment: Antiviral activity against BVDV bearing mutant RdRp infected in […] cells assessed as inhibition of virus-induced cytopathogenicity by MTT assay; format: functional, organism-based; conditions: Bovine viral diarrhea virus isolates and strains

Structure (SMILES) | pEC50 [1] | also measured
Clc1ccc(/N=N/C2=C3CCCN3CCC2)cc1 | < 4.52 | 
CN1CCC/C1=C\N=N\c1ccc(Br)cc1 | 4.96 | 
CN1C=C(/N=N/c2ccc(F)cc2)CCC1 | < 4.32 | 
CN1C=C(/N=N/c2cccc(C(F)(F)F)c2)CCC1 | 4.05 | 
CN1CCC/C1=C\N=N\c1ccc(Cl)c(Cl)c1 | 4.80 | 
Cc1ccc(/N=N/C=C2\CCCN2C)cc1 | 4.70 | 
CN1C=C(/N=N/c2ccc(Cl)c(C(F)(F)F)c2)CCC1 | < 4.55 | 
Brc1ccc(/N=N/C2=C3CCCCN3CCC2)cc1 | < 4.23 | 
CN1C=C(/N=N/c2ccc(Br)c(C(F)(F)F)c2)CCC1 | 4.40 | 
CN1C=C(/N=N/c2ccc(Cl)cc2)CCC1 | < 4.24 | 
Brc1cccc(/N=N/C2=C3CCCCN3CCC2)c1 | < 5.00 | 
CN1CCC/C1=C\N=N\c1ccc([N+](=O)[O-])cc1 | 4.72 | 
CN1C=C(/N=N/c2cccc(Br)c2)CCC1 | 4.72 | 
CN1C=C(/N=N/c2cccc([N+](=O)[O-])c2)CCC1 | 6.10 | pIC50 [2]: 4.52; Ratio CC50/EC50 [3]: 125; CC50 [4]: > 100 µM; pIC50 [5]: 4.49
FC(F)(F)c1cc(/N=N/C2=C3CCCN3CCC2)ccc1Cl | < 4.68 | 
c1ccc2c(/N=N/C3=C4CCCN4CCC3)cccc2c1 | 5.46 | 
Nc1ccc(-c2nc3cc([N+](=O)[O-])ccc3[nH]2)cc1 | 5.82 | pEC50 [6]: < 4.10; CC50 [4]: 79 µM
CN1CCC/C1=C\N=N\c1cccc([N+](=O)[O-])c1 | 5.26 | 
CN1CCC/C1=C\N=N\c1c(F)c(F)c(F)c(F)c1F | < 4.00 | 
c1ccc2c(/N=N/C3=C4CCCCN4CCC3)cccc2c1 | 5.22 | 
FC(F)(F)c1cccc(/N=N/C2=C3CCCCN3CCC2)c1 | < 5.10 | 
Clc1ccc(/N=N/C2=C3CCCN3CCC2)cc1Cl | < 4.17 | 

Structure (SMILES) | pEC50 [1] | also measured
CN1C=C(/N=N/c2cc(C(F)(F)F)cc(C(F)(F)F)c2)CCC1 | < 4.19 | 
Fc1ccc(/N=N/C2=C3CCCCN3CCC2)cc1 | < 4.25 | 
Cc1ccc(/N=N/C=C2\CCCN2Cc2ccccc2)cc1 | < 4.66 | 
CN1C=C(/N=N/c2ccccc2Cl)CCC1 | 4.00 | 
CN1CCC/C1=C\N=N\c1ccc(Cl)cc1 | 4.68 | 
Clc1ccc(/N=N/C2=C3CCCCN3CCC2)cc1 | < 4.22 | 
CN1CCC/C1=C\N=N\c1ccc(F)c(C(F)(F)F)c1 | 4.00 | 
CN1C=C(/N=N/c2ccc(Br)cc2)CCC1 | 4.22 | 
C[C@@]1(O)[C@H](O)[C@@H](CO)O[C@H]1n1cnc2c(=O)[nH]c(N)nc21 [2'-B-METHYL-GUANOSINE] | 5.77 | 
CN1CCC/C1=C\N=N\c1ccc(Br)c(C(F)(F)F)c1 | 4.34 | 
Clc1ccccc1/N=N/C1=C2CCCCN2CCC1 | < 4.00 | 
CN1C=C(/N=N/c2ccc(Cl)c([N+](=O)[O-])c2)CCC1 | < 4.21 | 
FC(F)(F)c1cc(/N=N/C=C2\CCCN2Cc2ccccc2)ccc1Cl | < 4.85 | 
CN1C=C(/N=N/c2ccc(F)c(C(F)(F)F)c2)CCC1 | < 4.00 | 
O=[N+]([O-])c1cc(/N=N/C2=C3CCCCN3CCC2)ccc1Cl | < 4.74 | 
FC(F)(F)c1cc(/N=N/C2=C3CCCCN3CCC2)ccc1Cl | < 4.46 | 
CN1CCC/C1=C\N=N\c1cccc(Br)c1 | 5.05 | 
CN1C=C(/N=N/c2ccc(Cl)c(Cl)c2)CCC1 | 5.15 | 
O=[N+]([O-])c1cccc(/N=N/C2=C3CCCN3CCC2)c1 | < 4.17 | 
FC(F)(F)c1cc(/N=N/C2=C3CCCCN3CCC2)cc(C(F)(F)F)c1 | < 4.51 | 
CN1C=C(/N=N/c2cccc3ccccc23)CCC1 | 5.30 | pEC50 [6]: < 4.00; pIC50 [2]: 4.26; CC50 [4]: > 100 µM; pIC50 [5]: 4.55
CN1CCC/C1=C\N=N\c1cccc(C(F)(F)F)c1 | 4.68 | 

Structure (SMILES) | pEC50 [1] | also measured
CC(=O)Nc1ccc(-c2nc3cc(Cl)c(Cl)cc3[nH]2)cc1 | 6.00 | pEC50 [6]: < 4.00; CC50 [4]: 58 µM
CC(=O)Nc1ccc(-c2nc3cc([N+](=O)[O-])ccc3[nH]2)cc1 | 6.10 | pEC50 [6]: < 4.00; CC50 [4]: > 100 µM
c1ccc2c(/N=N/C3=C4CCCN4CCC3)nncc2c1 | < 4.00 | 
CN1CCC/C1=C\N=N\c1ccccc1 | 5.00 | 
Fc1ccc(/N=N/C2=C3CCCCN3CCC2)cc1C(F)(F)F | < 4.00 | 
Cc1ccc(/N=N/C2=CN(C)CCC2)cc1 | < 4.00 | 
C(/N=N/c1ccccc1)=C1/CCCN1Cc1ccccc1 | < 4.13 | 
Clc1ccc(/N=N/C=C2\CCCN2Cc2ccccc2)cc1Cl | < 4.10 | 
CN1CCC/C1=C\N=N\c1ccc(F)cc1 | 4.74 | 
FC(F)(F)c1cc(/N=N/C2=C3CCCCN3CCC2)ccc1Br | 4.21 | 
CN1C=C(/N=N/c2ccc([N+](=O)[O-])cc2)CCC1 | 4.96 | 
CN1CCC/C1=C\N=N\c1cc(C(F)(F)F)cc(C(F)(F)F)c1 | < 4.44 | 
Clc1ccc(/N=N/C2=C3CCCCN3CCC2)cc1Cl | < 4.52 | 
CN1C=C(/N=N/c2c(F)c(F)c(F)c(F)c2F)CCC1 | < 4.00 | 
O=[N+]([O-])c1cccc(/N=N/C2=C3CCCCN3CCC2)c1 | < 4.00 | 
CN1C=C(/N=N/c2ccccc2)CCC1 | < 4.00 | 
Clc1ccc(/N=N/C=C2\CCCN2Cc2ccccc2)cc1 | < 4.74 | 
CN1C=C(/N=N/c2cccc(Cl)c2)CCC1 | 4.92 | 
COc1ccc(/N=N/C=C2\CCCN2C)cc1 | 4.74 | 
O=[N+]([O-])c1ccc(/N=N/C2=C3CCCCN3CCC2)cc1 | 4.07 | 
Clc1cccc(/N=N/C2=C3CCCCN3CCC2)c1 | < 4.70 | 
